This is an account of results in US11771648B2, “Carrier for oromucosal administration of physiologically active substances” (INSTAR TECHNOLOGIES A.S., priority 2011, dated 2023).

The series in a line: solubility in water (stated in words, no method described). Format: physicochemical. Particulars: qualitative statement.

As to `COc1ccc2cc(CCC(C)=O)ccc2c1` [Nabumetone, 4-(6-methoxy-2-nafthyl)-2-butanon], the solubility in water result was “very well soluble in water”.

Take `CNS(=O)(=O)Cc1ccc2[nH]cc(CCN(C)C)c2c1` [Sumatriptane, 1-[3-(2-dimethylaminoethyl)-1H-indol-5-yl]-N-methyl-methanesulfonamide]: the solubility in water entry is “good solubility in water”.
